Experimental data taken from patent publication US20240400545A1, “COMPOUND SERVING AS KAT6 INHIBITOR” (Hangzhou Innogate Pharma Co., Ltd., priority 2021, published 2024).
Read-outs that look alike come from different tables or passages of the source.

Tests used:
[1] = target: KAT6A enzyme (catalytic domain) (Homo sapiens (Human), UniProt Q92794); test: Inhibition of KAT6A enzyme activity ([3H]-acetyl-CoA / H3 (1-21) peptide, Flashplate); type: biochemical; conditions: for IC50: KAT6A catalytic domain, [3H]-acetyl-CoA, substrate peptide H3 (1-21); for inhibition at 0.011 µM: KAT6A, compound concentration 11 nM, read-out: Inhibition % of compounds at the concentration of 11 nM
KAT6A enzyme (catalytic domain), sequence (Q92794 504-778): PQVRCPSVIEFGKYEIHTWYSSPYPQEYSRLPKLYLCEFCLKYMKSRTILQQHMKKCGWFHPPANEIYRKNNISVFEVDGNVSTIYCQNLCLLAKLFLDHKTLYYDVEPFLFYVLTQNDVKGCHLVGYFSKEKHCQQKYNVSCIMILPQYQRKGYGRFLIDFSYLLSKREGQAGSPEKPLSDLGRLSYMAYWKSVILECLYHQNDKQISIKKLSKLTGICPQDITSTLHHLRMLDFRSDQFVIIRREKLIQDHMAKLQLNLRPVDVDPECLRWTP
Method: No. […] The plate was incubated at room temperature for 1 hour. 10 μL of the stop solution was added to terminate the reaction. 25 μL of the reaction solution was transferred to a Flashplate (Perkin Elmer, Cat. No. […]) and incubated at room temperature for 1 hour. The plate was read using Microbeta. The inhibition rate of the compounds was calculated using the formula of Excel: inhibition %=(Max-Signal)/(Max-Min)*100%. Where max is the value of the DMSO control, min is the value of the non-enzymatic control, and signal is the value of the well where the compound was tested. The curve was fitted using XLFit software and IC50 was calculated.

[2] = Pharmacokinetic study in rats (intragastrical administration); conditions: plasma
Method: (§1) All measurement data were collected and processed by Masslynx V4.1 software, and the data were calculated and processed by Microsoft Excel. The statistical moment method of WinNonLin 8.0 software was used to calculate the pharmacokinetic parameters. These mainly include kinetic parameters Tmax, T1/2, Cmax, AUC0-24 h etc. Column: ACQUITY UPLC BEH C18 (2.1 mm×50 mm, 1.7 μm); column temperature 40° C.; mobile phase A is water (0.1% formic acid), mobile phase B is acetonitrile, flow rate is 0.350 mL/min, gradient elution is adopted, the elution gradient is 0.50 min: 10% B; 1.50 min: 90% B; 2.50 min: 90% B; 2.51 min: 10% B; 3.50 min: stop. Injection volume: 1 μL.
(§2) Animals: 3 male SD rats with a weight range of 200-220 g were purchased and kept in the laboratory of the Experimental Animal Center for 2 days and then used. They were fasted for 12 hours predose and 4 hours after dosing. Drinking water was free during the test. After the rats were gavage, blood samples were taken according to the established time point.
(§3) Solvent: 0.4% ethanol+0.4% Tween80+99.2% (0.5% methylcellulose M450). Preparation of the solution for intragastrical administration: the compounds were accurately weighed and added to the solvent, and ultrasound was used at room temperature for 5 minutes to completely dissolve the drug, and a 0.3 mg/mL medicinal solution was prepared.
(§4) A single administration was also used to study the pharmacokinetics of the drug sample in rats.
(§5) After intragastrical administration, blood was taken from the orbit at 0.25, 0.5, 1, 2, 4, 8, 10 and 24 hours. Then 50 μL of the plasma sample was taken and added 200 μL of acetonitrile (including internal standard control verapamil 2 ng/mL), vortexed for 3 min and centrifuged at 20000 rcf, 4° C. for 10 min. The supernatant plasma was used for LC-MS/MS analysis.
(§6) The compounds were accurately weighed to prepare different concentrations, and quantitative analysis on mass spectrometry was performed to establish a standard curve, and then the concentration of the above-mentioned compound in the plasma was tested to obtain its concentration at different time points. All measurement data were collected and processed by relevant software, and the statistical moment method was used to calculate the pharmacokinetic parameters (mainly including kinetic parameters Tmax, T1/2, Cmax, AUC0-24 h etc).

[3] = rat, in vivo, po, 3 mg/kg
Method: as §1, §2, §3, §4, §5, §6

[4] = male SD rats, intragastrical, 1.5 mg/Kg

Row | Structure (SMILES) | IC50 [1] [nM] | AUC(0-t) ([2]; male, SD, rat, po, 3 mg/kg) [ng·h/mL] | Cmax ([2]; male, SD, rat, po, 3 mg/kg) [ng/mL] | Tmax ([2]; male, SD, rat, po, 3 mg/kg) [h] | half-life ([2]; male, SD, rat, po, 3 mg/kg) [h] | also measured
1 | COc1ccc(OC2CCC2)cc1S(=O)(=O)Nc1noc2cc(Cn3cccn3)cc(OC)c12 [Compound 1] | < 5 |  |  |  |  | AUC0-24h [2, 4]: 4481.07 ng·h/mL; Cmax [2, 4]: 392.76 ng/mL; T1/2 [2, 4]: 2.66 h; Tmax [2, 4]: 3.00 h
2 | COc1ccc(N2CCC2)cc1S(=O)(=O)Nc1noc2cc(Cn3cccn3)cc(OC)c12 [Compound 2] | < 10 |  |  |  |  | 
3 | C#Cc1cc(OC)c(S(=O)(=O)Nc2noc3cc(Cn4cccn4)cc(OC)c23)c(OC)c1 [Compound 4] | < 5 |  |  |  |  | AUC0-24h [3]: 109958.71 ng·h/mL; Cmax [3]: 6737.13 ng/mL; T1/2 [3]: 8.04 h; Tmax [3]: 9.33 h
4 | C#Cc1ccc(S(=O)(=O)Nc2noc3cc(Cn4cccn4)cc(OC)c23)c(OC)c1 [Compound 11] |  |  |  |  |  | AUC(0-t) ([2]; male, SD, rat, po, 2 mg/kg): 53700 ng·h/mL; Cmax ([2]; male, SD, rat, po, 2 mg/kg): 6380 ng/mL; Tmax ([2]; male, SD, rat, po, 2 mg/kg): 1.33 h; half-life ([2]; male, SD, rat, po, 2 mg/kg): 5.29 h
5 | COc1cc(C#CC2CC2)ccc1S(=O)(=O)Nc1noc2cc(Cn3cccn3)cc(OC)c12 [Compound 12] |  | 82200 | 4830 | 2 | 24.6 | 
6 | COc1cc(C#CC2COC2)cc(OC)c1S(=O)(=O)Nc1noc2cc(Cn3cccn3)cc(OC)c12 [Compound 14] |  | 5960 | 428 | 3.33 | 6.62 | inhibition at 0.011 µM [1]: 67%
7 | COc1cc(C#CC2CC(F)(F)C2)cc(OC)c1S(=O)(=O)Nc1noc2cc(Cn3cccn3)cc(OC)c12 [Compound 15] |  | 32500 | 2120 | 3.33 | 7.85 | 
8 | CC#Cc1ccc(S(=O)(=O)Nc2noc3cc(Cn4cccn4)cc(OC)c23)c(OC)c1 [Compound 16] |  | 45300 | 2790 | 2.67 | 14.4 | 
9 | COc1cc(N2CCC2)ccc1S(=O)(=O)Nc1noc2cc(Cn3cccn3)cc(OC)c12 [Compound 17] |  | 3120 | 229 | 2.67 | 3.17 | inhibition at 0.011 µM [1]: 75%
